Several values for one entry are separate records, joined by “and”; a condition that tells them apart may be missing. Identical values can stand only once. Counter-ions that a name gives are not always drawn.

A word on the IC50: it is the concentration that inhibits the measured activity by half. Higher therefore signals lower potency. In general, Hill coefficient refers to a measure of the steepness of the concentration-response curve.

Type in all cases: cell-based
For assay [1], the target named is T1, Kv1.5 WT channel (Homo sapiens, UniProt P22460).
T1 construct: subcloned as a fragment back into full-length Kv1.5; expressed in transfected cells
Description: Whole-cell patch-clamp block of wild-type Kv1.5 current in HEK293 cells. The text has this: Stable lines of HEK293 cells expressing Kv1.5, or transient transfection of mutant Kv1.5 channels were used in all experiments. Primers to generate mutant channels were synthesized by Integrated DNA Technologies, Inc. (Coralville, Iowa, USA), and mutants were generated using the Stratagene Quikchange kit (Stratagene, Calif., USA). The presence of the mutation was confirmed by DNA sequencing, and because of the size of the WT Kv1.5 clone, only the sequenced region harboring the targeted nucleotides was subcloned as a fragment back into full-length Kv1.5. Transient transfections were performed with HEK 293 cells plated at 20-30% confluency on sterile coverslips in 25 mm Petri dishes one day prior to transfection. 0.1-4 μg of ion channel DNA was incubated with 1 μg of eGFP DNA (to enable detection of transfected cells) and 2 μl of lipofectamine 2000 (Invitrogen) in 100 μl of Opti-MEM. This was added to the cells for overnight incubation after washing the media with 900 μl of MEM with 10% FBS.
The cells were grown in Minimal Essential Medium (MEM) at 37° C. in an air/5% CO2 incubator. Media contained 10% bovine serum and 0.5 mg/ml geneticin for stable lines. On the day before recording, stably-expressing cells were washed with MEM, treated with trypsin/EGTA for one minute and plated on 25 mm^2 coverslips. All cell culture supplies were obtained from Invitrogen (Mississauga, ON, Canada).
Control bath solution contained (in mM): 5 KCl, 135 NaCl, 2.8 sodium acetate, 1 MgCl2, 10 HEPES and 1 CaCl2, adjusted to pH 7.4 with NaOH. Patch pipettes contained (in mM): 130 KCl, 5 EGTA, 1 MgCl2, 10 HEPES, 4 Na2ATP, and 0.1 GTP, adjusted to pH 7.2 with KOH. All chemicals used to make solutions were obtained from Sigma-Aldrich (Mississauga, ON, Canada). […] Flecamide (Sigma-Aldrich, lot number 094K4057) was prepared as a stock solution (100 mM) in 100% DMSO. DMSO concentrations for either drug never exceeded 0.1% v/v in the final experimental solutions.
Coverslips with adherent cells plated on the surface were placed in a superfusion chamber (volume 300 μl) containing the control bath solution at 22° C. Whole-cell current recording and analysis were carried out using an Axopatch 200B amplifier and pClamp10 software (Axon Instruments, CA, USA). Patch electrodes were pulled from thin-walled borosilicate glass (World Precision Instruments, FL, USA) on a horizontal micropipette puller (Sutter Instruments, CA, USA). […] Analogue capacity compensation and 80% series resistance compensation were used during whole cell measurements. […] To assess drug block, half-log escalating concentrations of drug were added to the flowing bath solution and current traces were recorded with 400 ms depolarizing pulses to +60 mV at a frequency of 0.1 Hz. […]
In general terms: In patch-clamp work, channel activity is measured electrically.

For assay [2], the target named is T1, Kv1.5 WT channel. In words: Voltage-dependence of block (Woodhull fit), wild-type Kv1.5. Conditions: for blocking site, electrical distance across the membrane: Woodhull fit, +10 to +60 mV; for calculated binding site within the electric field (fractional electrical distance δ): from the inside of the pore. Here is the method:
(§1) Coverslips with adherent cells plated on the surface were placed in a superfusion chamber (volume 300 μl) containing the control bath solution at 22° C. Whole-cell current recording and analysis were carried out using an Axopatch 200B amplifier and pClamp10 software (Axon Instruments, CA, USA). Patch electrodes were pulled from thin-walled borosilicate glass (World Precision Instruments, FL, USA) on a horizontal micropipette puller (Sutter Instruments, CA, USA). […] Analogue capacity compensation and 80% series resistance compensation were used during whole cell measurements. Membrane potentials were not corrected for junction potentials that arise between the pipette and bath solution. For Kv1.5 current recordings, a holding potential of −80 mV was used. Data were sampled at 10-20 kHz and filtered at 5 to 10 kHz. To assess drug block, half-log escalating concentrations of drug were added to the flowing bath solution and current traces were recorded with 400 ms depolarizing pulses to +60 mV at a frequency of 0.1 Hz.
(§2) f=[D]/([D]+Kd*e^−δzFE/RT)
(§3) where F, R, z and T have their usual meanings, δ represents the fractional electrical distance, i.e., the fraction of the transmembrane electrical field sensed by a single charge at the receptor site. Kd* represents the binding affinity at the reference voltage (0 mV). The current amplitude (Idrug and Icontrol) was measured at the end of a 400 ms depolarization.
(§4) The amount of block was measured at the end of the pulse at the time indicated by the arrow on each set of data records, and, after normalization to the control, current density was plotted as a function of the depolarization potential (FIGS. 7B, 8B). Data were then fit to a standard model of drug block to obtain the electrical distance of the blocking site into the electric field from the inside of the channel (Woodhull, 1973).

In assay [3] the target is T2, Kv1.5 I502A mutant channel (Homo sapiens, UniProt P22460, I502A).
T2 construct: subcloned as a fragment back into full-length Kv1.5; expressed in transfected cells; host or cells: HEK293, transient transfection
Description: Voltage-dependence of block (Woodhull fit), I502A Kv1.5. Conditions: for blocking site, electrical distance across the membrane: Woodhull fit; for calculated binding site within the electric field (fractional electrical distance δ): from the inside of the pore. Here is the method: as §1, §2, §3, §4

T2 sequence (P22460 whole entry I502A, the tested form may be a part): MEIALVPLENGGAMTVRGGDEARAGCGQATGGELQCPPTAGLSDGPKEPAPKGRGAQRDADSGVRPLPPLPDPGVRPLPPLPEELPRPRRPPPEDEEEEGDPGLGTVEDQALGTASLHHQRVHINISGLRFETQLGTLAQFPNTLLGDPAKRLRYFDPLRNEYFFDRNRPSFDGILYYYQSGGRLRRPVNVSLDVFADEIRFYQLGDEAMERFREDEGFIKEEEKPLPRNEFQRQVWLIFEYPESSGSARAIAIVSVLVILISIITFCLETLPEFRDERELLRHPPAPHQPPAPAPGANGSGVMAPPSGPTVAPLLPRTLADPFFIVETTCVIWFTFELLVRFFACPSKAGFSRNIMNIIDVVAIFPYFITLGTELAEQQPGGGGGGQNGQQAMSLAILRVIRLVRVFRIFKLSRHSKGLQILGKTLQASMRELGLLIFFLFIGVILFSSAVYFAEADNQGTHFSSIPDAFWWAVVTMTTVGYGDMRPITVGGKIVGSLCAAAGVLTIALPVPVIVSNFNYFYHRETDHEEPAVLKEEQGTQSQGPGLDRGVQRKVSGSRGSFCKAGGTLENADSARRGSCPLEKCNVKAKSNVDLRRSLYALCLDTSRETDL
T1 sequence (P22460 whole entry, the tested form may be a part): as the sequence (P22460 whole entry I502A, the tested form may be a part) above, with A502I counted along it

In the case of `O=C(NCC1CCCCN1)c1cc(OCC(F)(F)F)ccc1OCC(F)(F)F` (stereo not drawn) [Flecainide], the IC50 on Kv1.5 WT channel [1] (steady-state current, +60 mV) was 38.1 µM and 38 µM. Moreover, on Kv1.5 WT channel [2], the “blocking site, electrical distance across the membrane” value (shortened to “blocking site”) was approximately 17% and the “calculated binding site within the electric field (fractional electrical distance δ)” value is listed as 0.17. Moreover, in assay [3], the “blocking site” value was determined as 32% and the “calculated binding site within the electric field (fractional electrical distance δ)” value was 0.32.
`COc1ccc(CCO[C@@H]2CCCC[C@H]2N2CC[C@@H](O)C2)cc1OC` [Vernakalant, 3-Pyrrolidinol, 1-[(1R,2R)-2-[2-(3,4-dimethoxyphenyl)ethoxy]cyclohexyl]-,hydrochloride, (3R)] returned a Hill coefficient on Kv1.5 WT channel [1] of 1.00. On Kv1.5 WT channel [1] (10 μM vernakalant), the “reduction of outward current” value is reported as “approximately 50%”. Moreover, the “Fractional Block ± SEM” value on Kv1.5 WT channel [1] (10 μM vernakalant, −80 to +60 mV, 400 ms, 0.1 Hz) stood at 0.45 ± 0.03. In addition, on Kv1.5 WT channel [2], the “blocking site” value is approximately 17% and the “calculated binding site within the electric field (fractional electrical distance δ)” value was 0.17. In assay [3], the “blocking site” value is approximately 40% and the “calculated binding site within the electric field (fractional electrical distance δ)” value is listed as 0.39.

The values are drawn from patent publication US20090053721A1, “VOLTAGE-GATED ION CHANNEL MUTANTS FOR USE IN IDENTIFYING ION CHANNEL MODULATING COMPOUNDS” (CARDIOME PHARMA CORP., priority 2007, published 2009).
